These results are taken from PMC11825364, “Development of supramolecular anticoagulants with on-demand reversibility” (Nature Biotechnology, 2024).

Experiment [1] concerns C57BL/6J mice. Put plainly: Needle injury thrombosis model. It counts as in vivo, mouse. The settings on record: A1–E1 5 mg per kg i.v. bolus twice 30 min apart, argatroban 2 mg per kg bolus + 12 mg per kg infusion over 60 min.
Experimental: For intravital mouse studies, male mice aged between 5 and 8 weeks old (15–20 g) were used.
A clinical preparation of argatroban (Argatra/Exembol) was purchased from Mitsubishi Tanabe Pharma (Germany) and prepared in sterile saline with 25% (vol/vol) propylene glycol. Synthesized PNA inhibitors and PNA inhibitors + antidote solutions were prepared in sterile saline at a concentration of 2 mg ml^–1. C57BL/6J male mice (15–25 g) were anesthetized with ketamine (150 mg per kg (body weight)) and xylazine (15 mg per kg (body weight)), supplemented with oxygen and subjected to intravital needle injury, as previously described[42]. […] Following each injury, platelet thrombus formation and fibrin generation were monitored over a 15-min period using a confocal intravital microscopy platform (Nikon A1R-Si with an Apo LWD, ×40/1.15-NA water immersion objective; sequential excitation: 488-, 561- and 638-nm lasers; emission: 525/50-, 595/50- and 700/75-nm filters) and NIS Elements Advanced Research acquisition software. […]
The signal obtained from DyLight 649-conjugated anti-GP1bβ for each xyz stack in a time series was thresholded to create a mask. The total signal (arbitrary units) from Alexa Fluor 546-conjugated anti-fibrin within this mask (that is, the fibrin signal within the thrombus) for each time point was then quantified using NIS Elements software (Nikon). […]
In experiment [2] the target is T1, human α-thrombin (Homo sapiens, UniProt P00734).
T1 construct: human α-thrombin (Haematologic Technologies, HCT0020); purchased Haematologic Technologies HCT0020
Put plainly: Michaelis Menten determination of KM of the fluorogenic substrate. It counts as biochemical. The settings on record: without inhibitor, variation of [substrate]; R2 0.98. On the procedure: Inhibition assays were performed using 0.2 nM enzyme, 20 μM substrate and increasing concentrations of inhibitor. The concentration of each inhibitor variant was determined using the absorbance of the PNA at 260 nm, as measured by NanoDrop. All reactions were performed at 37 °C in 50 mM Tris-HCl (pH 8.0), 50 mM NaCl and 1 mg ml^–1 bovine serum albumin in black 96-well microtiter plates (Thermo Fisher Scientific, 267342). Reaction progress was monitored by excitation at 339 nm and emission at 439 nm using a SpectraMax or Tecan Spark Plate Reader. Dose–response curves were used to determine the half-maximal inhibitory concentrations (IC50) using Prism 8.0 (GraphPad Software). For each inhibitor, the reactions were performed in triplicate, together with control reactions in the absence of enzyme. The initial velocity was calculated from the slope of the first 10 min of the assay. The curves were normalized to the well without inhibitor, where the initial velocity was set to 100% activity.
MALDI-TOF; m/z found: 1202.95.
5. Thrombin Inhibition Assay
Supplementary Figure 2: Thrombin Fluorogenic Assay
The assay was performed as described in the Online Methods section.
To convert IC50 values to Ki values, KM was determined: The assay described above was performed
without inhibitor but with variation of [substrate]. The Michaelis Menten plot was obtained, and KM […]

In experiment [3] the target is Biotin-PNA (8-mer) ACAACTGC
In words: SPR of PNA hybridization. The settings on record: 25 °C. The class given is binding. On the procedure: SPR experiments were performed on a Biacore T200 instrument (GE Healthcare) at 25 °C in PBS-P+ buffer (10× stock; Cytiva Life Sciences, 28995084). Biotin-PNA (8-mer) was immobilized on a Streptavidin Series S sensor chip (Cytiva Life Sciences, 29104992). Before immobilization, the two channels were conditioned with 1 M NaCl in 50 mM NaOH. After stabilization, the compound (solution in PBS-P+) was flowed over one of the flow cells of the sensor chip at a concentration of 50 nM at a flow rate of 10 μl min^−1 with a response unit target of 500. Biotin-PNA (8-mer) reached a response unit value of 513.7. The system (not including the flow cells) was washed with 50% isopropanol in 1 M NaCl and 50 mM NaOH after each ligand injection. Kinetic measurements consisted of injections (association, 400 s; dissociation, 450 s; flow rate, 30 μl min^−1) of decreasing concentrations of PNA (4-, 6- and 8-mer; twofold cascade dilutions from the starting concentration). The chip was regenerated between cycles by one injection of regeneration solution (50 mM NaOH) for 10 s at a flow rate of 20 μl min^−1, followed by a 10-s stabilization period. Binding was measured as resonance units over time after blank subtraction, and the data were interpreted using Biacore T200 software (version 3.2). All measurements were performed in duplicate. The KD values were calculated based on steady-state affinity (1:1 binding).

For `CC1CNc2c(cccc2S(=O)(=O)N[C@@H](CCCNC(=N)N)C(=O)N2CC[C@@H](C)C[C@@H]2C(=O)O)C1` (stereo partly shown) [argatroban], the “fibrin formation and thrombus size” value in experiment [1] is “significant decreases in fibrin formation and thrombus size”. The term Km denotes the concentration of substrate that gives half-maximal velocity. “phe-Pro-Arg-Coumarin [(S)-1-(D-phenylalanyl)-N-((S)-5-guanidino-1-((4-methyl-2-oxo-2H-chromen-7-yl)amino)-1-oxopentan-2-yl)pyrrolidine-2-carboxamide, substrate of the thrombin assay]”: in experiment [2], the Km turned out to be 2420 nM and the Vmax worked out at 435.8. Broadly, the Kd is a measure of binding affinity in units of concentration. Low readings indicate a tighter complex, high ones a looser complex. In turn, CAGT displayed a dissociation constant (Kd) in experiment [3] of 4.14 µM.
